Test results from ChEMBL document CHEMBL5036349, “Development of potent dual PDK1/AurA kinase inhibitors for cancer therapy: Lead-optimization, structural insights, and ADME-Tox profile” (Eur J Med Chem, 2021).

Tests used:
HCT-116 [1] = assay: Cytotoxicity against human HCT-116 cells measured after 72 hrs by MTT assay; type: functional, cell-based; conditions: HCT-116, 72 h
6647 = assay: (§1) Cytotoxicity against human 6647 cells at 30 uM assessed as cell proliferation rate measured after 72 hrs by MTT assay relative to control; type: functional
HCT-116 [2] = assay: Cytotoxicity against human HCT-116 cells at 30 uM assessed as cell proliferation rate measured after 72 hrs by MTT assay relative to control; type: functional
[3] = Cytotoxicity against human 6647 cells measured after 72 hrs by MTT assay; type: functional, cell-based; conditions: Homo sapiens, 6647, 72 h
CAKI-1 [4] = assay: Cytotoxicity against human CAKI-1 cells measured after 72 hrs by MTT assay; type: functional, cell-based; conditions: CAKI-1, 72 h
NCI-H69 [5] = assay: Cytotoxicity against human NCI-H69 cells measured after 72 hrs by MTT assay; type: functional, cell-based; conditions: NCI-H69, 72 h
Rec1 [6] = assay: Cytotoxicity against human REC1 cells measured after 72 hrs by MTT assay; type: functional, cell-based; conditions: Rec1, 72 h
TC-32 [7] = assay: Cytotoxicity against human TC-32 cells at 30 uM assessed as cell proliferation rate measured after 72 hrs by MTT assay relative to control; type: functional
IGROV-1 [8] = assay: Cytotoxicity against human IGROV-1 cells measured after 72 hrs by MTT assay; type: functional, cell-based; conditions: IGROV-1, 72 h
A673 [9] = assay: Cytotoxicity against human A673 cells measured after 72 hrs by MTT assay; type: functional, cell-based; conditions: A673, 72 h
MCF7 [10] = assay: Cytotoxicity against human MCF7 cells measured after 72 hrs by MTT assay; type: functional, cell-based; conditions: MCF7, 72 h
TC-71 [11] = assay: (§2) Cytotoxicity against human TC71 cells at 30 uM assessed as cell proliferation rate measured after 72 hrs by MTT assay relative to control; type: functional
PC-3 [12] = assay: Cytotoxicity against human PC-3 cells measured after 72 hrs by MTT assay; type: functional, cell-based; conditions: PC-3, 72 h
SK-N-MC [13] = assay: Cytotoxicity against human SK-N-MC cells measured after 72 hrs by MTT assay; type: functional, cell-based
TC-32 [14] = assay: Cytotoxicity against human TC-32 cells measured after 72 hrs by MTT assay; type: functional, cell-based; conditions: TC-32, 72 h
NCI-H82 [15] = assay: Cytotoxicity against human NCI-H82 cells measured after 72 hrs by MTT assay; type: functional, cell-based; conditions: NCI-H82, 72 h
[16] = Cytotoxicity against human TC71 cells measured after 72 hrs by MTT assay; type: functional, cell-based; conditions: TC-71, 72 h
786-0 [17] = assay: Cytotoxicity against human 786-0 cells measured after 72 hrs by MTT assay; type: functional, cell-based; conditions: 786-0, 72 h
[18] = as §1; type: functional
NCI-H82 [19] = assay: Cytotoxicity against human NCI-H82 cells at 30 uM assessed as cell proliferation rate measured after 72 hrs by MTT assay relative to control; type: functional
786-0 [20] = assay: Cytotoxicity against human 786-0 cells at 30 uM assessed as cell proliferation rate measured after 72 hrs by MTT assay relative to control; type: functional
A673 [21] = assay: Cytotoxicity against human A673 cells at 30 uM assessed as cell proliferation rate measured after 72 hrs by MTT assay relative to control; type: functional
IGROV-1 [22] = assay: Cytotoxicity against human IGROV-1 cells at 30 uM assessed as cell proliferation rate measured after 72 hrs by MTT assay relative to control; type: functional
CAKI-1 [23] = assay: Cytotoxicity against human CAKI-1 cells at 30 uM assessed as cell proliferation rate measured after 72 hrs by MTT assay relative to control; type: functional
[24] = as §2; type: functional; conditions: TC-71
SK-N-MC [25] = assay: Cytotoxicity against human SK-N-MC cells at 30 uM assessed as cell proliferation rate measured after 72 hrs by MTT assay relative to control; type: functional
PC-3 [26] = assay: Cytotoxicity against human PC-3 cells at 30 uM assessed as cell proliferation rate measured after 72 hrs by MTT assay relative to control; type: functional
NCI-H69 [27] = assay: Cytotoxicity against human NCI-H69 cells at 30 uM assessed as cell proliferation rate measured after 72 hrs by MTT assay relative to control; type: functional
MCF7 [28] = assay: Cytotoxicity against human MCF7 cells at 30 uM assessed as cell proliferation rate measured after 72 hrs by MTT assay relative to control; type: functional
Rec1 [29] = assay: Cytotoxicity against human REC1 cells at 30 uM assessed as cell proliferation rate measured after 72 hrs by MTT assay relative to control; type: functional
[30] = target: T1, Protein deacetylase HDAC6 (Homo sapiens) (UniProt Q9UBN7); assay: Inhibition on human recombinant HDAC6 at 10 uM measured after 20 min by luminescence glo assay
T1 sequence (whole entry): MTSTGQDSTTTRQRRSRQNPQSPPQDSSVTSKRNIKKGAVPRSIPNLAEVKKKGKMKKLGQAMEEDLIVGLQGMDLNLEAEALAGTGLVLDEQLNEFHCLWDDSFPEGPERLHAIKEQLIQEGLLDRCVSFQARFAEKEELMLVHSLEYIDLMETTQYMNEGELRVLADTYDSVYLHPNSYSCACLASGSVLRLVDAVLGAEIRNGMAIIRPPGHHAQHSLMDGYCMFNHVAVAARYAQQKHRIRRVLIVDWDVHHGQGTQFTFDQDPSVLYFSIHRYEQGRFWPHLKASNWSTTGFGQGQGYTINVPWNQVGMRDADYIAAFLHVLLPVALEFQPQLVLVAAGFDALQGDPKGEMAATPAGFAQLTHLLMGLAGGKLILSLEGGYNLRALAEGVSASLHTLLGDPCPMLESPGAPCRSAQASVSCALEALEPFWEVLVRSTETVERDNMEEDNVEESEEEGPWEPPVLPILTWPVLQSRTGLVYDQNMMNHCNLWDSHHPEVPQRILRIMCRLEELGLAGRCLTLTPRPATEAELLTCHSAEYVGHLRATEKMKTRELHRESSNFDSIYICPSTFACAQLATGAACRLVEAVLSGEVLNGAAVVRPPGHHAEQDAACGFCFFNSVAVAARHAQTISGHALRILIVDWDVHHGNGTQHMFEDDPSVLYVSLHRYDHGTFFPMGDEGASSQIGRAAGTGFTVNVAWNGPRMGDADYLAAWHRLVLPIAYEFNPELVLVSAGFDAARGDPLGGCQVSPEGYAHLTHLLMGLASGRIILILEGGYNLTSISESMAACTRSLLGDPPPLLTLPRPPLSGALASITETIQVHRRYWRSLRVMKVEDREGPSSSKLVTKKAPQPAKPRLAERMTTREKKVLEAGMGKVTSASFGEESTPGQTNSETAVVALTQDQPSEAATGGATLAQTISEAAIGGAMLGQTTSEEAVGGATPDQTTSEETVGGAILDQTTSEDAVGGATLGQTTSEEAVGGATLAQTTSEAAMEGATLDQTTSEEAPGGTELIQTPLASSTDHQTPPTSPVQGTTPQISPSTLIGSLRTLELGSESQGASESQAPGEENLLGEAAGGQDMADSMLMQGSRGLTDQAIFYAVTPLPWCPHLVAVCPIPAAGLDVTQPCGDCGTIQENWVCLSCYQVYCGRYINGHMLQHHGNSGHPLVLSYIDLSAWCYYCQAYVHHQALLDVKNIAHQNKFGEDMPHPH

[31] = target: 3',5'-cyclic-AMP phosphodiesterase 4C (Homo sapiens) (UniProt Q08493); assay: Inhibition of PDE4C1 (unknown origin) at 10 uM incubated for 60 mins followed by addition of binding agent and measured after 20 mins by Fluorescence Polarization assay relative to control; conditions: time 80.0 min
TC-71 [32] = assay: Anticlonogenic activity against human TC71 cells assessed as reduction of cell survival at 0.5 to 20 uM measured after 10 days by SRB staining clonogenic survival assay; type: functional, cell-based; conditions: dose 0.5-20 µM, time 10.0 day
[33] = target: Histone deacetylase 9 (Homo sapiens) (UniProt Q9UKV0); assay: Inhibition on human recombinant HDAC9 at 10 uM measured after 20 min by luminescence glo assay
[34] = target: T2, NAD-dependent protein deacetylase sirtuin-7 (Homo sapiens) (UniProt Q9NRC8); assay: Inhibition of human recombinant SIRT7 at 10 uM incubated for 20 mins followed by mixing and measure after 30 mins by Luminescence assay relative to control; conditions: time 50.0 min
T2 sequence (whole entry): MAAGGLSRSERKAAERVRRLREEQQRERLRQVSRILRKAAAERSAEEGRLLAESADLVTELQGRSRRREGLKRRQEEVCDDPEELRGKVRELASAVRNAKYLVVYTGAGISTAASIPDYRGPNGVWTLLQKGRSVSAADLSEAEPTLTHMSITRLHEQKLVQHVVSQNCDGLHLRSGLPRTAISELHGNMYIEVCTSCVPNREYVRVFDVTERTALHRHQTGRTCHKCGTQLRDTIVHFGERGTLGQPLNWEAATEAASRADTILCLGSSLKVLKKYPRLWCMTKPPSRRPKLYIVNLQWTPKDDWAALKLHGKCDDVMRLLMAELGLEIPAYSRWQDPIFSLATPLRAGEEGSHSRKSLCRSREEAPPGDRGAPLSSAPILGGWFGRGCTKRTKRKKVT

HEK293 = assay: Cytotoxicity against HEK293 cells at 10 uM measured after 24 to 48 hrs by Cell-titer glo assay relative to control; type: cell-based; conditions: human, hek293, 10 µM, time 24-48 hrs
[35] = Cytotoxicity against hTERT cells at 10 uM measured after 24 to 48 hrs by Cell-titer glo assay relative to control; type: cell-based; conditions: human, time 24-48 hrs
[36] = target: T3, Histone deacetylase 8 (Homo sapiens) (UniProt Q9BY41); assay: Inhibition on human recombinant HDAC8 at 10 uM measured after 20 min by luminescence glo assay
T3 sequence (whole entry): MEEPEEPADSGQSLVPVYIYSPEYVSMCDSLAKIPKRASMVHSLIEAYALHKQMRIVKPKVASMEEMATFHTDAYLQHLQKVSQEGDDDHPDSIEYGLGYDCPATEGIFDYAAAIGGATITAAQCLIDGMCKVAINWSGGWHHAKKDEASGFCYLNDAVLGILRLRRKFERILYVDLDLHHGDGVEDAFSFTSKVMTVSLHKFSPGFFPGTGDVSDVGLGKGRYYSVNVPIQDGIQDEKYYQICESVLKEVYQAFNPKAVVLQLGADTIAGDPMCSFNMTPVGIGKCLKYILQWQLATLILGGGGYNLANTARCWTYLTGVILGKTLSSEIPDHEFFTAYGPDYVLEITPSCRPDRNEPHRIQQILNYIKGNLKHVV

[37] = target: Aurora kinase B (Homo sapiens) (UniProt Q96GD4); assay: Inhibition of Aurora B kinase (unknown origin) at 10 uM in presence of ATP incubated for 30 min followed by addition of kinase glo-reagent measured after 20 mins by Luminescence based plate reader assay relative to control; conditions: time 50.0 min
HCT-116 [38] = assay: Anticlonogenic activity against human HCT-116 cells assessed as reduction of cell survival at 0.5 to 20 uM measured after 10 days by SRB staining clonogenic survival assay; type: functional, cell-based; conditions: dose 0.5-20 µM, time 10.0 day
[39] = target: {'v': 'hERG (KCNH2)', 'o': 'p', 'q': 'Inhibition of human ERG at 10 uM'} (Homo sapiens, UniProt Q12809); assay: Inhibition of human ERG at 10 uM relative to control
[40] = target: Histone deacetylase 4 (Homo sapiens) (UniProt P56524); assay: Inhibition on human recombinant HDAC4 at 10 uM measured after 20 min by luminescence glo assay
Sequence of Histone deacetylase 4 (Homo sapiens) (P56524 whole entry): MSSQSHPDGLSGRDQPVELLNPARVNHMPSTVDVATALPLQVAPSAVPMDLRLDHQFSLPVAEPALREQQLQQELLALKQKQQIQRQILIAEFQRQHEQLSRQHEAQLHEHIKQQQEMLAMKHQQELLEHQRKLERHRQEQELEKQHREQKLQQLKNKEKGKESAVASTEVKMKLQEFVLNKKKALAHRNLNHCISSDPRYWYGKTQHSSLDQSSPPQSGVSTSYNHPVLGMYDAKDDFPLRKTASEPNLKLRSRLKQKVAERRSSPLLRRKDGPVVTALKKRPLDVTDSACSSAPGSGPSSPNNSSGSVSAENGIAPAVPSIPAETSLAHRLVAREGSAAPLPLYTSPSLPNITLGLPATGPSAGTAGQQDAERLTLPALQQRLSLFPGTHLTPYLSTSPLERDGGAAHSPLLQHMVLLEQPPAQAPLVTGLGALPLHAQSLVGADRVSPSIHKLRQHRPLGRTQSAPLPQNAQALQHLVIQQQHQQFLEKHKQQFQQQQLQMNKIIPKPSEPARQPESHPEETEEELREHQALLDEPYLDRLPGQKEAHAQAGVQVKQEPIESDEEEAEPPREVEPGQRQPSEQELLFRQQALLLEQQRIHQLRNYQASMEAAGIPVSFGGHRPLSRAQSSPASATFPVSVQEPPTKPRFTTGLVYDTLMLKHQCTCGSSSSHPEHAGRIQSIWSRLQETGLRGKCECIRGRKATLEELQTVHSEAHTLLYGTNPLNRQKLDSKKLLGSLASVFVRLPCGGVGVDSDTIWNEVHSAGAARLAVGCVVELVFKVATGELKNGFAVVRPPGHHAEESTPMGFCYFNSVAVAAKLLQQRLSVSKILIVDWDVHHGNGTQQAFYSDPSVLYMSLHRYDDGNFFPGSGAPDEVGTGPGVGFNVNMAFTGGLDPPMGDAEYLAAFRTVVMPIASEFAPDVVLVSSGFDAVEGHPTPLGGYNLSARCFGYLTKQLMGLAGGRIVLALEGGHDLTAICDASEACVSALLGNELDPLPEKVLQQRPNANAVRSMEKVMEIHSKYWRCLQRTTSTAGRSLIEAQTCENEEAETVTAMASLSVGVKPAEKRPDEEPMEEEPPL

Sequence of 3',5'-cyclic-AMP phosphodiesterase 4C (Homo sapiens) (Q08493 whole entry): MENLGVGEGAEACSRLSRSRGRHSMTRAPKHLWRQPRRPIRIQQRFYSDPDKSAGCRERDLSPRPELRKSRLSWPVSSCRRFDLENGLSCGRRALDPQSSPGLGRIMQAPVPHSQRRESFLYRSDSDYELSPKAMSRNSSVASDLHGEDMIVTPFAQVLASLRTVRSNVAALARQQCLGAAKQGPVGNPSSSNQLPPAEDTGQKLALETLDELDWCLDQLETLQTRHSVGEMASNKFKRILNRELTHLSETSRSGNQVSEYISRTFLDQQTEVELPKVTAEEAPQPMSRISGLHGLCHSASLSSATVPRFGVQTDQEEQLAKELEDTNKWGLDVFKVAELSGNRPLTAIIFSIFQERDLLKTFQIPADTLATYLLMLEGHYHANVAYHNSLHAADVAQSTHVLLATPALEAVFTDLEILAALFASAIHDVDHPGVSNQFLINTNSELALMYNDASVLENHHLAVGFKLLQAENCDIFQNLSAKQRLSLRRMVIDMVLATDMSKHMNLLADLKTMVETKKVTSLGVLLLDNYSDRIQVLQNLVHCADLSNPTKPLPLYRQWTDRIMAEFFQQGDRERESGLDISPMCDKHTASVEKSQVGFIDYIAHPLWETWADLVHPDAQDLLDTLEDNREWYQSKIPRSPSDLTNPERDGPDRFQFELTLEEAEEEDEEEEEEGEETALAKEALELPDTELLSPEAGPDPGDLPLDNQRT
Sequence of {'v': 'hERG (KCNH2)', 'o': 'p', 'q': 'Inhibition of human ERG at 10 uM'} (Q12809 whole entry): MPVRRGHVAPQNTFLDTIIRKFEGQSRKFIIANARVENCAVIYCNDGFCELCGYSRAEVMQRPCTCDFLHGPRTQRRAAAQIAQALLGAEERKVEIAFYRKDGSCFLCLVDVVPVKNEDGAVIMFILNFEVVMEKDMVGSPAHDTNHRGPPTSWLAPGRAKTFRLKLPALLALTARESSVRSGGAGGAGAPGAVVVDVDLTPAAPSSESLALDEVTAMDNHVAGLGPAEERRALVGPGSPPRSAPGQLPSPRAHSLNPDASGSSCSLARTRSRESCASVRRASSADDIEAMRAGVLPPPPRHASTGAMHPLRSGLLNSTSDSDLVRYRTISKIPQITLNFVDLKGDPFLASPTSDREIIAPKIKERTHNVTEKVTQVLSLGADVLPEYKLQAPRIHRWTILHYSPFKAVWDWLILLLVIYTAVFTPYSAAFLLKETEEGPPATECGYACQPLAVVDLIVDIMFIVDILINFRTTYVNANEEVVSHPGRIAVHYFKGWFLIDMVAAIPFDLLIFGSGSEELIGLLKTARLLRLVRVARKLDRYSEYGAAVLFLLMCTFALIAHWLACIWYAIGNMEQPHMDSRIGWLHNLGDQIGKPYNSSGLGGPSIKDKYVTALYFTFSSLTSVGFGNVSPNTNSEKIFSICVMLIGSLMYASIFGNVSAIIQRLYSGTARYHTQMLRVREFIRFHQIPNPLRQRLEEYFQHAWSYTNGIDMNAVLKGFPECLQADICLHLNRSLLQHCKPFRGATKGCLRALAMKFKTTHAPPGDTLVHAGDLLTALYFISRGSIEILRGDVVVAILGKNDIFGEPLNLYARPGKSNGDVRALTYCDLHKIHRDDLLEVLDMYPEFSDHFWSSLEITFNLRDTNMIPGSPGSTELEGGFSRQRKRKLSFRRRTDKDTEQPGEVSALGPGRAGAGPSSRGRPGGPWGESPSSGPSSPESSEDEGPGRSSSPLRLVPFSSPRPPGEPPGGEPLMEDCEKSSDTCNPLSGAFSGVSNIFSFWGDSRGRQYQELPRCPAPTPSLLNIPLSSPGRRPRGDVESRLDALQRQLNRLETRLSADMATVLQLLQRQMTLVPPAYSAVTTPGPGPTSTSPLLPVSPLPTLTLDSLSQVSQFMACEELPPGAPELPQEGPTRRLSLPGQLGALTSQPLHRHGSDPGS
Sequence of Histone deacetylase 9 (Homo sapiens) (Q9UKV0 whole entry): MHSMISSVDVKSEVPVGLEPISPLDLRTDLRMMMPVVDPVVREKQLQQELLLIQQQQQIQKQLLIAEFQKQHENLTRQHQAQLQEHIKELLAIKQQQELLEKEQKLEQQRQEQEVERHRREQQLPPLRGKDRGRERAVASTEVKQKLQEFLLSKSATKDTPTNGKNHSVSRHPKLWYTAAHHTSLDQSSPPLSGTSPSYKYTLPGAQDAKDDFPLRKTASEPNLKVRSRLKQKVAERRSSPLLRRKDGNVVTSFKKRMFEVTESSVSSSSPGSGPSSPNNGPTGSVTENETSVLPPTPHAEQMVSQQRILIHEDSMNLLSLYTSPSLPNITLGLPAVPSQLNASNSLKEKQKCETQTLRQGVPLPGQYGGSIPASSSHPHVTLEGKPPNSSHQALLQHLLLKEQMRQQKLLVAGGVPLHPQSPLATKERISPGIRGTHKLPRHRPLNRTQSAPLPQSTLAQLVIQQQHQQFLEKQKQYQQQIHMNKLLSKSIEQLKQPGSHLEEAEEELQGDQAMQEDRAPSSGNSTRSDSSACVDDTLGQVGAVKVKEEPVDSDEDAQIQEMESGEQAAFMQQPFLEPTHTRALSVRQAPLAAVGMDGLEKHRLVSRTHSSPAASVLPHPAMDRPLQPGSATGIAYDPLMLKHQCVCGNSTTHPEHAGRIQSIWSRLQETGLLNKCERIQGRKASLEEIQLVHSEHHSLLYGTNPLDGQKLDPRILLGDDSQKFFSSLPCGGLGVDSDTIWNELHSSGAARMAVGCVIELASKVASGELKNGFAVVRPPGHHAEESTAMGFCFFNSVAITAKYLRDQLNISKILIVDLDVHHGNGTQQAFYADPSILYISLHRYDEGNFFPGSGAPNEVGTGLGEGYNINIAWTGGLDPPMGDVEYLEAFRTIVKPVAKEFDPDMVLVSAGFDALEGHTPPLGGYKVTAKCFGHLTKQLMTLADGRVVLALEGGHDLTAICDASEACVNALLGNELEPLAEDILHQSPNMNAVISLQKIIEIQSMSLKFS
Sequence of Aurora kinase B (Homo sapiens) (Q96GD4 whole entry): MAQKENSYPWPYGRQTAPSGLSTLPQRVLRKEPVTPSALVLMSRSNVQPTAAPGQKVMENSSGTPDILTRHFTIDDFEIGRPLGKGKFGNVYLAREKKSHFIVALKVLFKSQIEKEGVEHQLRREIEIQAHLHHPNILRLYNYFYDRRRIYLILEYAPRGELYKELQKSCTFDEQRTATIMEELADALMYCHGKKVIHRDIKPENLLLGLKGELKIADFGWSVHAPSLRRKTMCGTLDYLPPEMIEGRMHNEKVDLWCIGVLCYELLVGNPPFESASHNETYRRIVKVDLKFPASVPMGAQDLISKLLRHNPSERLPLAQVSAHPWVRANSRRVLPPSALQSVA

Compound	IC50 (HCT-116 [1]) [µM]	Emax at 30 µM (HCT-116 [2]) [%]	IC50 [3] [µM]	IC50 (CAKI-1 [4]) [µM]	IC50 (NCI-H69 [5]) [µM]	IC50 (Rec1 [6]) [µM]	Emax at 30 µM (TC-32 [7]) [%]	IC50 (IGROV-1 [8]) [µM]	IC50 (A673 [9]) [µM]	IC50 (MCF7 [10]) [µM]	IC50 (PC-3 [12]) [µM]	IC50 (SK-N-MC [13]) [µM]	IC50 (TC-32 [14]) [µM]	IC50 (NCI-H82 [15]) [µM]	IC50 [16] [µM]	IC50 (786-0 [17]) [µM]	Emax at 30 µM (SK-N-MC [25]) [%]	other results
O=C(O)[C@]1(Cc2cccc(Nc3nccs3)n2)CC[C@@H](Oc2cccc(Cl)c2F)CC1 [MK-5108]	16.3	40	0.6	> 30	> 30	> 30	-59	> 30	> 30	> 30	> 30	> 30	5.6	> 30	1.6	> 30		Emax 6647: 82%; Emax (TC-71 [11]): 70%
NCC(=O)Nc1ccc(-n2nc(C(F)(F)F)cc2-c2ccc3c(ccc4ccccc43)c2)cc1 [AR-12]	2.7	95	0.3	5	1.8	3.8	75	3.7	2.1	2.8	6.5	6	2	4	0.8	2.9	81	Emax at 30 µM [18]: 89%; Emax at 30 µM (NCI-H82 [19]): 90%; Emax at 30 µM (786-0 [20]): 80%; Emax at 30 µM (A673 [21]): 95%; Emax at 30 µM (IGROV-1 [22]): 91%; Emax at 30 µM (CAKI-1 [23]): 95%; Emax at 30 µM [24]: 95%; Emax at 30 µM (PC-3 [26]): 80%; Emax at 30 µM (NCI-H69 [27]): 80%; Emax at 30 µM (MCF7 [28]): 89%; Emax at 30 µM (Rec1 [29]): 90%
Cc1ccc(C(=O)N[C@@H](C(=O)Nc2ccc3c(c2)/C(=C/c2cnc[nH]2)C(=O)N3)c2ccccc2)c(=O)n1Cc1ccc(F)c(F)c1	> 30		4.7	> 30	> 30	> 30		> 30	> 30	> 30	> 30	3	> 30	> 30	> 30	> 30	83	inhibition [30]: < 30%; inhibition [31]: < 30%; Activity (TC-71 [32]): Dose-Dependent Effect; inhibition [33]: < 30%; inhibition [34]: < 30%; Activity (HEK293): < 25%; Activity [35]: < 25%; inhibition [36]: < 30%; inhibition [37]: < 20%; Activity (HCT-116 [38]): Dose-Dependent Effect; inhibition at 10 µM [39]: 56%; inhibition [40]: < 30%
